Test results as given in patent US20220402980A1, “CHROMOGRANIN A-DERIVED PEPTIDES AND USES THEREOF” (OSPEDALE SAN RAFFAELE S.R.L., priority 2019, published 2022).
Where a SMILES comes first, the peptide text is derived from it.

Tests used:
αvβ6 = molecular target: T1, αvβ6 (Homo sapiens, UniProt P06756+P18564); assay: Competitive integrin binding assay (isoDGR/STV-HRP probe), αvβ6-coated plates; details: Table 3a and text; ± standard error of the mean; read-out: Ki αvβ6
T1 construct: recombinant human αvβ6 extracellular domain (R&D Systems); purchased R&D Systems (Minneapolis, Minn.)
Method: (§1) Peptide binding was measured by a competitive binding assay using as integrin probe a complex made by a N-terminal acetylated isoDGR peptide biotinylated at the E-amino group of the lysine, acetyl-Ciso[…]-bio (SEQ ID No. 29), and a streptavidin-peroxidase conjugate (called isoDGR/STV-HRP)[43].
(§2) Each mixture was then added to integrin-coated wells and left to incubate for 2 h at room temperature. After washing with 25 mM Tris-HCl, pH 7.4, containing 150 mM sodium chloride, 1 mM magnesium chloride, 1 mM manganese chloride, each well was filled with a chromogenic solution (o-phenylenediamine dihydrochloride) and left to incubate for 30 min at room temperature. The chromogenic reaction was stopped by adding 1 N sulfuric acid. The absorbance at 490 nm was then measured using a microtiterplate reader. Ki values were calculated by non-linear regression analysis of competitive binding data using the “One site - Fit Ki” equation of the GraphPad Prism Software using the Kd values of the probe indicated above.

αvβ5 = molecular target: T2, αvβ5 (Homo sapiens, UniProt P06756+P18084); assay: Competitive integrin binding assay (isoDGR/STV-HRP probe), αvβ5-coated plates; details: Table 3a; ± standard error of the mean
T2 construct: purchased Immunological Sciences (Rome, Italy)
Method: as §1, §2

[1] = test system: human bladder carcinoma 5637 cells; assay: 5637 cell viability (PrestoBlue); assay type: cell-based; details: 48 h
Method: FIG. 12. Effect of peptides 4 and 5 on human bladder carcinoma 5637 cell viability. 5637 cells were seeded in a 96-well microtiterplate (20,000 cell/well) and cultured for 16 h at 37° C., 5% CO2. The day after the indicated doses of peptide 4 and 5 were added to the cells and left to incubate for additionally 48 h at 37° C., 5% CO2. Cell viability was assessed using the PrestoBlue* cell viability reagent (ThermoFisher) according to the manufacturer's instructions. Viability of the treated cells was normalized to that of untreated cells and is reported as a percentage (mean±SE of triplicate wells).

[2] = molecular target: T3, αvβ6 on human bladder cancer 5637 cells (Homo sapiens, UniProt P06756+P18564); assay: Effect of peptides on binding of anti-αvβ6 mAb 10D5 to 5637 cells (FACS); assay type: cell-based; details: competition with mAb 10D5
T3 construct: cell-surface expressed αvβ6 on human bladder cancer 5637 cells; host or cells: human bladder cancer 5637 cells

[3] = molecular target: T4, αvβ6 on human keratinocytes (HaCat) (Homo sapiens, UniProt P06756+P18564); assay: Effect of peptides on binding of anti-αvβ6 mAb 10D5 to HaCaT cells (FACS); assay type: cell-based; details: competition with mAb 10D5
T4 construct: endogenous in cells; host or cells: human skin keratinocytes HaCaT

[4] = Peptide stability in mouse liver microsomal preparations (RP-HPLC); assay type: in vitro ADME; details: C57BL/6, mouse, liver microsomes; 37° C.; read-out: t1/2 in mouse liver microsomes (converted)
Method: FIG. 14. Stability of peptides 4 and 5 in murine liver microsomes as determined by RP-HPLC. a) RP-HPLC of 4 and 5 after incubation at 37° C. in murine liver microsomes. Peak 1 corresponds to 4 and 5. The peptides were added to murine liver microsomes (454 - μg/ml, final concentration) and incubated for the indicated time, diluted with an equal volume of 90% acetonitrile containing 0.1% TFA and analyzed onto a LiChrospher C18 column (16 ag). No peptide indicates liver microsome aliquot without the peptide. b) Quantification of Peak 1 area (left panel) and height (right panel) of the indicated peptides. The corresponding half-life is also shown.
The stability of compound 4 and 5 in mouse liver microsomal preparations was assessed by HPLC analysis. To this aim microsomes were prepared as follows: 11 g of mouse liver tissue (C57BL/6 mice) was homogenized in cold PBS supplemented with 0.25 M sucrose (3 ml/g of tissue) using a Potter-Elvehjem homogenizer (10 strokes), followed by additional homogenization using a rotor-stator homogenizer (40 sec). The homogenate was filtered through 70 pm cell-strainers, centrifuged three times to remove insoluble materials (500 x g, 5 min; 3000 x g, 30 min; 110000 x g, 90 min, 4° C.). […] Protein concentration was measured by measuring the absorbance at 280 nm with a NanoDrop spectrophotometer (Thermo Scientific). […]

αvβ8 = αvβ8 (Homo sapiens, UniProt P06756+P26012); assay: Competitive integrin binding assay (isoDGR/STV-HRP probe), αvβ8-coated plates; details: Table 3a and text; ± standard error of the mean; read-out: Ki αvβ8
Method: as §1, §2

α5β1 = molecular target: T5, α5β1 (Homo sapiens, UniProt P05556+P08648); assay: Competitive integrin binding assay (isoDGR/STV-HRP probe), α5β1-coated plates
T5 construct: purchased Immunological Sciences (Rome, Italy)
Method: as §1, §2

| Compound | Ki (αvβ6) [nM] | Ki (αvβ5) [nM] | cytotoxicity in vitro [1] | binding to cell-surface expressed αvβ6 [2] | binding to cell-surface expressed αvβ6 [3] | half-life at 454 μg/ml [4] [min] | Ki (αvβ8) [nM] | Ki (α5β1) [nM] |
| --- | --- | --- | --- | --- | --- | --- | --- | --- |
| CC[C@H](C)[C@H](NC(=O)[C@H](CCCNC(=N)N)NC(=O)[C@H](CC(C)C)NC(=O)[C@H](CC(=O)O)NC(=O)CNC(=O)[C@H](CCCNC(=N)N)NC(=O)[C@H](CC(C)C)NC(=O)[C@@H](NC(=O)[C@H](CCC(=O)O)NC(=O)[C@@H](N)Cc1ccccc1)[C@@H](C)O)C(=O)N[C@@H](CC(C)C)C(=O)N[C@@H](CO)C(=O)N[C@H](C(=O)N[C@@H](CC(C)C)C(=O)N[C@@H](CCCNC(=N)N)C(=O)N[C@@H](Cc1c[nH]cn1)C(=O)N[C@@H](CCC(N)=O)C(=O)N[C@@H](CC(N)=O)C(=O)N[C@@H](CC(C)C)C(=O)N[C@@H](CC(C)C)C(=O)N[C@@H](CCCCN)C(=O)N[C@@H](CCC(=O)O)C(=O)N[C@@H](CC(C)C)C(=O)N[C@@H](CCC(N)=O)C(=O)N[C@@H](CC(=O)O)C(=O)O)[C@@H](C)CC [peptide 4] (H-FETLRGDLRILSILRHQNLLKELQD-OH; N-terminus and C-terminus assumed) | 1.6 ± 0.3 | 2410 ± 1590 | not cytotoxic | bound cell-surface expressed αvβ6 | bound cell-surface expressed αvβ6 | 78 | 8.5 ± 3.7 |  |
| CC(C)C[C@H](NC(=O)[C@H](CC(=O)O)NC(=O)CNC(=O)[C@H](CCCNC(=N)N)NC(=O)[C@H](CC(C)C)NC(=O)[C@H](CC(N)=O)NC(=O)[C@@H]1CCCN1C(=O)[C@@H](NC(=O)[C@H](C)NC(=O)[C@@H](N)CC(N)=O)C(C)C)C(=O)N[C@@H](CCC(N)=O)C(=O)N[C@H](C(=O)N[C@@H](CC(C)C)C(=O)N[C@@H](C)C(=O)N[C@@H](CCC(N)=O)C(=O)N[C@@H](CCCCN)C(=O)N[C@H](C(=O)N[C@@H](C)C(=O)N[C@@H](CCCNC(=N)N)C(=O)N[C@H](C(=O)O)[C@@H](C)O)C(C)C)C(C)C [peptide 6] |  |  |  |  |  |  |  | 2317 ± 10 |
